Test results from publication PMC6331789, “Phytochemicals from Ruta graveolens Activate TAS2R Bitter Taste Receptors and TRP Channels Involved in Gustation and Nociception” (Molecules, 2015).

Columns and labels:
TRPM8 [1] = conditions: cited from earlier work
TAS2R14 [2] = target: T1, TAS2R14 (Homo sapiens, UniProt Q9NYV8); assay: In vitro calcium imaging assay on cloned TAS2R14 in transfected HEK293T cells; format: cell-based
T1 construct: expressed in transfected cells; host or cells: HEK293T
T1 sequence (Q9NYV8 1-317): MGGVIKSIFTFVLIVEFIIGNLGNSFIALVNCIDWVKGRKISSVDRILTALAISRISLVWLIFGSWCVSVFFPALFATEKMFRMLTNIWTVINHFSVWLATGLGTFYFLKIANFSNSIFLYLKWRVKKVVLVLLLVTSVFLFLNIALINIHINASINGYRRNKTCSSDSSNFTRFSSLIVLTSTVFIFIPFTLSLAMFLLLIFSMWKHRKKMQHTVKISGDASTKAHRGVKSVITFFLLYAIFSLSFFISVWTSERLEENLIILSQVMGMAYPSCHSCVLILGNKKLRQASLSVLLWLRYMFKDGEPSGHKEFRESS
Text: (§1) Pure phytochemicals were submitted to in vitro assays with a platform of twenty cloned receptors of the bitter taste TAS2R family and four receptors of the TRP family related to the perception of taste and somatosensory sensations. All experiments have been repeated three times, each time with four replicates. […] For simplicity, only those bitter taste receptors having reproducible positive assay, namely TASR10, 14 and 49, are reported (Table 1).
(§2) For those compounds showing activity on one or more receptor(s), the concentration/response curves were plotted and the EC50 calculated.
(§3) For the biological tests, several compounds were purchased as references from different suppliers (Sigma Aldrich, ChromaDex, Irvine, CA, USA, and Tocris Bioscience, Bristol, UK) and dissolved in assay buffer (130 mM NaCl, 5 mM KCl, 1 mM MgCl2, 2 mM CaCl2, 5 mM NaHCO3 and 20 mM HEPES, pH 7.4) or in a mixture of assay buffer and DMSO, never exceeding a final DMSO concentration of 0.5% (v/v) to avoid toxic effects and possible artefacts on transfected cells.
(§4) All human TAS2R and G15Gi1 cDNAs were produced as reported in Bassoli et al. cDNAs for human TRPA1-M5-M8-V1-V4 were cloned into a pcDNA6 expression vector (Invitrogen-Thermo Fisher, Waltham, MA, USA).
(§5) All experiments were performed using HEK293T cells (ATCC).
(§6) For the bitter platform experiments, cells were cultured, transfected and analyzed as previously described.
(§7) For the bitter platform experiments, data analyses were performed as previously described.
(§8) For the calculation of concentration-response curves, responses were calculated as the difference between maximal and minimal relative fluorescence unit (RFU) values in a selected time window (11–60 s) and were normalized to the basal well fluorescence (Time Point 1, before compound injection) in order to compensate for differences in cell density (∆F/F0). All of the experiments have been repeated three times, each time with four replicates. All of the results are averages of at least four replicates. Raw data are available in Supplementary Material, Figures S3–S6.

TRPM5 = target: T2, TRPM5 (Homo sapiens, UniProt Q9NZQ8); assay: In vitro membrane potential dye assay (FLIPR) on HEK293T cells stably overexpressing TRPM5; format: cell-based; conditions: concentration/response curve; values with ≥ estimated
T2 construct: expressed in transfected cells
T2 sequence (Q9NZQ8 1-1165): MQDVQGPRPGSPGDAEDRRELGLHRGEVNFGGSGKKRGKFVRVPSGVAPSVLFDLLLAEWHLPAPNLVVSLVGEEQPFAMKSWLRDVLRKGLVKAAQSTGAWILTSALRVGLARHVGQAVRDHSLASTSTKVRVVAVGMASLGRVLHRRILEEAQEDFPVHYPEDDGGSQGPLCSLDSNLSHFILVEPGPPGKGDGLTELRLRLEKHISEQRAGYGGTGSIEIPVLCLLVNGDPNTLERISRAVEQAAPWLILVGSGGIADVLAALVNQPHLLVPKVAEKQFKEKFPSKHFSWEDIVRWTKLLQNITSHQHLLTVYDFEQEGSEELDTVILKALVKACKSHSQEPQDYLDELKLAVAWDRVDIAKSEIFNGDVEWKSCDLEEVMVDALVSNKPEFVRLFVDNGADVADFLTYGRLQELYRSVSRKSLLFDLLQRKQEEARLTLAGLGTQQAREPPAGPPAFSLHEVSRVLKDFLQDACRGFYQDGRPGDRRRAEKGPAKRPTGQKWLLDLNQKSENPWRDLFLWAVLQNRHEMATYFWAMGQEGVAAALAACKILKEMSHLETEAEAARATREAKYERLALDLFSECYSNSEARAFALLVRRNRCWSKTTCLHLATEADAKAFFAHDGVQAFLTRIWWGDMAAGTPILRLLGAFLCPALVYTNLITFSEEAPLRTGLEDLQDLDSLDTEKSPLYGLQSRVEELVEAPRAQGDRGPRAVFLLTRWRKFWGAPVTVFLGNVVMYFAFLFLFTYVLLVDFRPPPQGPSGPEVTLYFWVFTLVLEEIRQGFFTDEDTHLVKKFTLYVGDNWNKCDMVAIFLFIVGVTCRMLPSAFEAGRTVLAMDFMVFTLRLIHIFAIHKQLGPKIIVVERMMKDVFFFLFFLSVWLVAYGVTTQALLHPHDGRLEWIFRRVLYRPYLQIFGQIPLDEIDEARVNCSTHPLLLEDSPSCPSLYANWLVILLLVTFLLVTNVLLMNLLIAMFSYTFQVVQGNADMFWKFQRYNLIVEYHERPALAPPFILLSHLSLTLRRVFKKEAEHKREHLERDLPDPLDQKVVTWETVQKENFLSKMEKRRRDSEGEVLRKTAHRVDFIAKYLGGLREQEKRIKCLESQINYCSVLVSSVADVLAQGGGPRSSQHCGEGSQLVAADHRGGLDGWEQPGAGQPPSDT
Text: as §1, §2, §3, §4, §5
(§9) For TRP platform experiments, cells were cultured in MEM/EBSS medium (ECB2071L EuroClone, Milan, Italy) plus 10% (v/v) fetal bovine serum (FBS) (26400-044 Gibco, Karlsruhe, Germany) and 1% (v/v) Pen/Strep 10K/10K stock (17-602E Lonza, Basel, Switzerland). Stable cell lines were generated overexpressing each TRP channel, and clones were selected with 500 µg/mL of G418 (ant-gn-5 Invivogen, Karlsruhe, Germany). To analyze TRP receptor responses, cells were plated at a concentration of 20,000 cells/well in 384-well plates (GR-4330 Twin Helix srl, Milan, Italy). Cellular responses were measured 24 h after seeding.
(§10) For TRPM5 experiments, cells were loaded 24 h after seeding with a Membrane Potential Dye (R8034 MDC) solution in assay buffer according to the manufacturer’s instructions and incubated at 37 °C for 1 h before acquisition. All experiments were performed using a fluorometric imaging plate reader (FLIPR^TETRA, Molecular Devices equipped with ICCD Camera from Stanford Photonics, INC, (Palo Alto, CA, USA) and kinetics were visualized with Molecular Devices’ Screenworks 3.0 (Sunnyvale, CA, USA).
as §8

TAS2R14 [3] = conditions: cited from earlier work
TAS2R10 [4] = conditions: cited from earlier work; for Selective agonism of TAS2R10 (literature): described in the literature, no reference given
TAS2R10 [5] = target: T3, TAS2R10 (Homo sapiens, UniProt Q9NYW0); assay: In vitro calcium imaging assay on cloned TAS2R10 in transfected HEK293T cells; format: cell-based; conditions: concentration/response curve; values with ≥ estimated, curve did not saturate; read-out: EC50 TAS2R10
T3 construct: expressed in transfected cells; host or cells: HEK293T
T3 sequence (Q9NYW0 1-307): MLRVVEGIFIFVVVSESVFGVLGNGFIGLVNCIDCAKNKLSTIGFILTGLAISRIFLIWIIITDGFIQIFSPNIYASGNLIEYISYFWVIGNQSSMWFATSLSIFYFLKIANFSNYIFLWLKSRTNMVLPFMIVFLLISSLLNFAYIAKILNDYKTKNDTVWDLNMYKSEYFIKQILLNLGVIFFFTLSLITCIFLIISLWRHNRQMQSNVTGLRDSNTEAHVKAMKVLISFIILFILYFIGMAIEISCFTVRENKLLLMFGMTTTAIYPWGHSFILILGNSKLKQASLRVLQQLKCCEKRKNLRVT
Text: as §1, §2, §3, §4, §5, §6, §7, §8

TAS2R49 [6] = target: T4, TAS2R49 (Homo sapiens, UniProt P59543); assay: In vitro calcium imaging assay on cloned TAS2R49 in transfected HEK293T cells; format: cell-based; conditions: concentration/response curve; read-out: EC50 TAS2R49
T4 construct: expressed in transfected cells; host or cells: HEK293T
T4 sequence (P59543 1-309): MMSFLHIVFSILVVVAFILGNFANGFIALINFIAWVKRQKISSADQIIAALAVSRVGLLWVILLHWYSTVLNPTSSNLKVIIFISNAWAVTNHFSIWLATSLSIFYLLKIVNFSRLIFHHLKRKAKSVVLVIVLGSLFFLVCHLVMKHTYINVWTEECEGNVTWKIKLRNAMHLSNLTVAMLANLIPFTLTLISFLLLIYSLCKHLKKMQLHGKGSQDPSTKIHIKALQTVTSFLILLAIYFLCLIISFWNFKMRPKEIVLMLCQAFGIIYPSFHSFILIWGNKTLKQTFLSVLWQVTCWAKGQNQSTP
Text: as §1, §2, §3, §4, §5, §6, §7, §8

TRPM8 [7] = target: T5, TRPM8 (Homo sapiens, UniProt Q7Z2W7); assay: In vitro Fluo8-NW calcium assay (FLIPR) on HEK293T cells stably overexpressing TRPM8; format: cell-based; conditions: concentration/response curve
T5 construct: expressed in transfected cells
T5 sequence (Q7Z2W7 whole entry): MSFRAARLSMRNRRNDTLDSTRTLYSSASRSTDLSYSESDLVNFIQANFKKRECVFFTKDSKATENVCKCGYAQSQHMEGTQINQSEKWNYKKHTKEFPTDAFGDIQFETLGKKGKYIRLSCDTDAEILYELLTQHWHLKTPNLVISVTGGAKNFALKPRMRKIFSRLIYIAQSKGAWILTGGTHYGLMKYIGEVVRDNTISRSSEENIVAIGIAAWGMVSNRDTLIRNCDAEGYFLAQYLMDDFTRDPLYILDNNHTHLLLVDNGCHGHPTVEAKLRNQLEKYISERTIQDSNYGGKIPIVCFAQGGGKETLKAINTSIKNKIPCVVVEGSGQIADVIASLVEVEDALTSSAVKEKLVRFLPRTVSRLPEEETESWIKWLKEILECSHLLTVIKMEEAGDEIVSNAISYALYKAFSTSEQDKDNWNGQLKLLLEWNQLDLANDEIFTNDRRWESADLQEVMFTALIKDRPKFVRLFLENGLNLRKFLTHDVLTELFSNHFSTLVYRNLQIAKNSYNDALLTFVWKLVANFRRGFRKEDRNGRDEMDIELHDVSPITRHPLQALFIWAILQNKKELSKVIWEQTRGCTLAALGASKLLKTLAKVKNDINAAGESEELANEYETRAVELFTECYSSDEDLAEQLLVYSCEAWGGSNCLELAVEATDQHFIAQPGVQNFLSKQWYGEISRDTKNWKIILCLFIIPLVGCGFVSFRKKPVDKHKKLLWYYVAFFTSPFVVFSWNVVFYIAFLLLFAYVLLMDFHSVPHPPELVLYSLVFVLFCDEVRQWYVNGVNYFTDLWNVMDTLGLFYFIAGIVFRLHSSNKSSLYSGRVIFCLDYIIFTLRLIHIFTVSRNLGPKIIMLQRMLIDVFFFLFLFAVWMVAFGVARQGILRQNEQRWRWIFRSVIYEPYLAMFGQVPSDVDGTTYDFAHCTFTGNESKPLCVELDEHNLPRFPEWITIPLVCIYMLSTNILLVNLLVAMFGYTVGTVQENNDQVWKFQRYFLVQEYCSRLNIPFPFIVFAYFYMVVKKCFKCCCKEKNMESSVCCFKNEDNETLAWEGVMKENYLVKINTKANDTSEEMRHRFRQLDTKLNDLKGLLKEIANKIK
Text: as §1, §2, §3, §4, §5, §9
For TRPA1-M8-V1-V4 experiments, a solution of Fluo8-NW calcium-sensitive dye (36316 AAT BioQuest, Sunnyvale, CA, USA) was prepared using the assaybuffer and diluting the kit components 1:2 according to the manufacturer’s instructions. Twenty-four hours after seeding, cells were incubated one hour at RT, loaded with 40 µL of Fluo8-NW solution for each well and incubated again for one hour at RT before data acquisition.
as §10, §8

TAS2R49 [8] = system: TAS2R49; parameters: method as in PMID 20022913; conditions: cited from earlier work
bitter taste receptor = system: bitter taste receptor; parameters: method as in PMID 24117141; conditions: cited from earlier work

In the case of CC[C@H]1CC2CN3CCc4c([nH]c5ccc(OC)cc45)[C@](C(=O)OC)(C2)[C@H]13 (stereo in doubt) [voacangine], the “TRPM8 inhibition (literature)” value (TRPM8 [1]) is given as “potent TRPM8 inhibitor”.

Compound COc1cccc2c1cc([N+](=O)[O-])c1c(C(=O)O)cc3c(c12)OCO3 [Aristolochic Acid, reference compound] has an EC50 (TAS2R14 [2]) of 2.3 µM.

Work on C[N+](C)(C)CCOC(N)=O [Carbachol, reference compound] yielded an EC50 (TRPM5) of 4.3 µM.

In the case of O=c1ccc2ccccc2o1 [Coumarin], the “Agonism of TAS2R14 (literature)” value (TAS2R14 [3]) is listed as “known agonist” and the “Agonism of TAS2R10 (literature)” value (TAS2R10 [4]) is listed as “known agonist”.

CC[N+](CC)(CC(=O)Nc1c(C)cccc1C)Cc1ccccc1 [Denatonium Benzoate, reference compound] showed an EC50 (TAS2R10 [5]) of 8.3 µM.

With Cc1nc2sccn2c(=O)c1CCN1CCC(=C(c2ccc(F)cc2)c2ccc(F)cc2)CC1 [Ritanserin, reference compound] the EC50 (TAS2R49 [6]) was 6 µM.

With CCNC(=O)C1CC(C)CCC1C(C)C (stereo not drawn) [WS3, reference compound] the EC50 (TRPM8 [7]) was 4 µM.

For O=C(O)c1cc(=O)c2c(OCC(O)COc3cccc4oc(C(=O)O)cc(=O)c34)cccc2o1 [cromolyn], the “Agonism of TAS2R49 (literature)” value (TAS2R49 [8]) is given as “non-selective agonists”.

For CC(=O)OC(C)(C)/C=C/C(=O)[C@](C)(O)[C@H]1[C@H](O)C[C@@]2(C)[C@@H]3CC=C4[C@@H](C=C(O)C(=O)C4(C)C)[C@]3(C)C(=O)C[C@]12C [cucurbitacin E], the “Selective agonism of TAS2R10 (literature)” value (TAS2R10 [4]) is given as “selective agonists”.

For OC(CCCN1CCCCC1)(c1ccccc1)c1ccccc1 [diphenidol], the “Agonism of TAS2R49 (literature)” value (TAS2R49 [8]) is listed as “non-selective agonists”.

In the case of CC[C@H]1OC(=O)[C@H](C)[C@@H](O[C@H]2C[C@@](C)(OC)[C@@H](O)[C@H](C)O2)[C@H](C)[C@@H](O[C@@H]2O[C@H](C)C[C@H](N(C)C)[C@H]2O)[C@](C)(O)C[C@@H](C)C(=O)[C@H](C)[C@@H](O)[C@]1(C)O [erythromycin], the “Selective agonism of TAS2R10 (literature)” value (TAS2R10 [4]) is listed as “selective agonists”.

In the case of O=c1cc(-c2ccc(O)c(O)c2)oc2cc(O)cc(O)c12 [luteolin], the “Bitter taste receptor activation of flavonoids (literature)” value (bitter taste receptor) is listed as “active”.

For COc1ccc2c(c1OC)C(=O)O[C@@H]2[C@H]1c2c(cc3c(c2OC)OCO3)CCN1C [noscapine], the “Selective agonism of TAS2R14 (literature)” value (TAS2R14 [3]; described in the literature, no reference given) is listed as “selective agonist”.

For O=c1c(O)c(-c2ccc(O)c(O)c2)oc2cc(O)cc(O)c12 [quercetin], the “Bitter taste receptor activation of flavonoids (literature)” value (bitter taste receptor) is given as “still active, but with lower efficacy”.
